Assay results published in patent US9783521B2, “PDE10 inhibitors and related compositions and methods” (Omeros Corporation, priority 2008, dated 2017).

Experiments:
[1] = biological target: T1, recombinant human PDE 10A1 (Homo sapiens, UniProt Q9Y233); assay: PDE10 biochemical assay (two-step Thompson and Appleman method or SPA); settings: PDE10 inhibition; read-out: IC50
T1 construct: made in house; host or cells: Sf9 insect cells, baculoviral system
Experimental: After the appropriate incubation time, the reaction is terminated by heating. The mixture is then subjected to treatment with snake venom phosphatase. […] IC50 values can be calculated by performing the experiment at several concentrations using standard graphical means. A detailed description of the actual technique used for IC50 assays as set forth in following Examples.
The phosphodiesterase (PDE) assay was performed using recombinant human PDE 1A3, 2A3, 3 catalytic region, 4 catalytic region, 5 catalytic region, 7A, 8A, 9A2, 10A1 and 11A1 enzymes expressed in a baculoviral system using Sf9 cells. PDE activity was measured using a modification of the two-step method of Thompson and Appleman described above which was adapted for 96 well plate format. […] Reactions were initiated with enzyme and incubated with (^3H)-substrate and substance for 20 minutes at 30° C. The reaction was terminated by denaturing the enzyme (heating the reaction to 70° C. for 2 minutes). The reaction was then cooled at 4° C. for 10 minutes before the addition of snake venom (Crotalus atrox, 0.2 mg/ml) for 10 minutes at 30° C., thus allowing non-specific hydrolysis of the tritiated substrate. Separation of the remaining unhydrolysed cyclic nucleotide was achieved by a batch binding of the mixture to activated Dowex (200 μl) anion exchange resin. The anion exchange resin bound the charged nucleotides, leaving only hydrolysed (^3H) substrate in the soluble fraction. The soluble fraction (50 μl) was then added to microscint-20 (200 μl) and counted on a Top Count Plate reader. Radioactivity units were plotted against inhibitor concentration and IC50 values obtained using Graph Pad Prism software.
Alternatively, phosphodiesterase activity was measured by scintillation proximity assay (SPA) with [^3H]-cGMP as substrate. Purified PDE10 was diluted and stored in 25 mM Tris-Cl (pH 8.0)/100 mM NaCl/0.05% Tween 20/50% glycerol/3 mM DTT. Assays contained (final concentrations): 50 mM Tris-Cl (pH 7.5)/8.3 mM MgCl2/1.7 mM EGTA/0.5 mg/ml BSA/5% DMSO and 2 ng PDE10 in a final volume of 0.1 mL. Inhibition was evaluated at 8 concentrations in duplicate. Reactions were initiated by addition of enzyme and were terminated after 20 minutes at 30° C. by the addition of 50 μl of SPA beads containing Zn^++. The mixture was shaken, allowed to settle for 3 hours, and counted in a Wallac plate counter. Results (net cpm) were fitted to a four parameter logistic model using Excel Solver®.

[2] = tested on: C57BL/6 male mice; assay: PCP-induced hyperactivity (psychostimulant-induced model of psychosis); format: in vivo
Experimental: Psychostimulant-induced hyperactivity is measured by injecting animals with PCP and monitoring the animals' activity levels in the VersaMax chambers (Accuscan Instruments, Columbus, Ohio) measuring 40×40 cm. Locomotor activity is detected by photobeam breaks as the animal crosses each beam. The animal is placed in the center of the field and left undisturbed for a period of time (20 min to 2 hr) to measure its spontaneous activity in a novel environment. Measurements used to assess locomotor activity include: horizontal activity, total distance traveled, vertical activity (rearing events—animal raises up on hindlimbs), rotation, stereotypy, and distance traveled in the center compared to total distance traveled (center: total distance ratio). The NMDA antagonist PCP induces psychosis-like conditions manifested as hyperactivity and increased stereotypic behavior. Known antipsychotics are able to reverse psychostimulant-induced hyperactivity and increased stereotypy.
C57BL/6 male mice were injected with either compound (10 mg/kg) or vehicle via i.p. Ten minutes later, the mice were injected with PCP (5 mg/kg) via i.p. The mice were placed in the activity chambers 10 minutes after PCP injection and their locomotor activities were monitored by infrared beam breaks for 20 min.
C57BL/6 male mice were administered either compound or vehicle via oral gavage. Fifteen minutes later, the mice were injected with PCP (5 mg/kg) via the i.p. route. The mice were placed in activity chambers 10 minutes after PCP injection, and their locomotor activity in the horizontal dimension was monitored by infrared beam breaks for 20 min (5 consecutive 4-minute intervals (INT) as indicated).
C57BL/6 male mice were administered either compound or vehicle via oral gavage. Twenty-five minutes later, the mice were injected with PCP (5 mg/kg) via the i.p. route. The mice were placed in activity chambers 10 minutes after PCP injection and their locomotor activity in the horizontal dimension was monitored by infrared beam breaks for 20 min (5 consecutive 4-minute intervals (INT) as indicated).
C57BL/6 male mice were given either compound or vehicle by oral gavage. Twenty-five minutes later they were injected with PCP (5 mg/kg, i.p.). Ten minutes later, the mice were placed in activity chambers, and their locomotor activity in the horizontal dimension was monitored by infrared beam breaks for 20 min (5 consecutive 4-minute intervals (INT) as indicated).
C57BL/6 male mice were co-injected with PCP (5 mg/kg) and either compound or vehicle via the i.p. route. Ten minutes later, the mice were placed in activity chambers and their locomotor activity in the horizontal dimension was monitored by infrared beam breaks for 20 min (5 consecutive 4-minute intervals (INT) as indicated).
C57BL/6 male mice were administered either compound or vehicle via oral gavage. Twenty-five minutes later, the mice were injected with PCP (5 mg/kg) via the i.p. route. The mice were placed in the activity chambers 10 minutes after PCP injection and their locomotor activity in the horizontal dimension was monitored by infrared beam breaks for 20 min (5 consecutive 4-minute intervals (INT) as indicated).
C57BL/6 male mice were administered either compound or vehicle via oral gavage. Twenty-five minutes later, the mice were injected with PCP (5 mg/kg) via the i.p. route. The mice were placed in the activity chambers 10 minutes after injection and their locomotor activity in the horizontal dimension was monitored by infrared beam breaks for 20 min (5 consecutive 4-minute intervals as indicated).

[3] = tested on: C57BL/6 male mice; assay: Conditioned avoidance response (CAR) model of psychosis; format: in vivo; settings: for number of avoidance responses (CAR) vs vehicle: 30 trials; for conditioned avoidance response (CAR) in trained mice as compared to vehicle control: mouse, in vivo
Text: Conditioned avoidance response (CAR) is a behavioral test to evaluate antipsychotic effect of a test compound. […] Each chamber is fitted with metal grid floor that is capable of delivering electric shocks independently. A computer program is used to implement the testing paradigm as well as record the animal's movement between the two chambers through infrared beam sensors. The testing paradigm is as the follows. A mouse is placed into one chamber. A light (conditioned stimulus, CS) comes on. Five seconds later, mild electric shocks (0.4 mA) (unconditioned stimulus, US) are delivered to the chamber where the mouse is located (as detected by infrared beams) until the mouse escapes to the adjacent chamber or until 10 sec has elapsed. The US and CS always co-terminate. With randomized inter-trial intervals averaging 15 sec, 30 such CS-US pairing trials are given to each mouse each day. For each trial, an escape response is registered if the mouse crosses to the other chamber after being shocked (i.e., during the 10-sec US period), and an avoidance response is registered if the mouse crosses to the other chamber during the first 5-sec CS only period. The animals are trained in such paradigm for 15-20 days, during which the average percentage of avoidance responses will improve to 60-80%. […] These trained animals are then used for compound testing using the same paradigm.
The mice were then injected with either compound or vehicle via i.p., and 20 minutes later they were tested for 30 trials in the CAR paradigm. Vehicle treatment and compound treatment were given to the same animals on alternating days, and the effect of compound in reducing avoidance response was analyzed through within-subject comparison (paired t-test). […] The mice were then given either vehicle (15 minutes prior to testing) or compound (25 minutes prior to testing) via oral gavage, and were tested for 30 trials in the CAR paradigm. Vehicle treatment and compound treatment were given to the same animals on alternating days, and the effect of compound in reducing avoidance response was analyzed through within-subject comparison (paired t-test).
The mice were then given either vehicle (15 minutes prior to testing) or compound (25 minutes prior to testing) via oral gavage, and then were tested for 30 trials in the CAR paradigm. Vehicle treatment and compound treatment were given to the same animals on alternating days, and the effect of compound in reducing avoidance response was analyzed through within-subject comparison (paired t-test).
The mice were then given either vehicle (15 minutes prior to testing) or compound (25 minutes prior to testing) via oral gavage, and were then tested for 30 trials in the CAR paradigm. Vehicle treatment and compound treatment were given to the same animals on alternating days, and the effect of compound in reducing avoidance response was analyzed through within-subject comparison (paired t-test).
The mice were then given either vehicle (15 minutes prior to testing) or compound (25 minutes prior to testing) via oral gavage, and were tested for 30 trials in the CAR paradigm.

[4] = tested on: PDE10; settings: cited from earlier work
[5] = biological target: PDE10; settings: cGMP binding to PDE10; read-out: dissociation constant (Kd); cited from earlier work

T1 sequence (Q9Y233 1-779 isoform Q9Y233-1): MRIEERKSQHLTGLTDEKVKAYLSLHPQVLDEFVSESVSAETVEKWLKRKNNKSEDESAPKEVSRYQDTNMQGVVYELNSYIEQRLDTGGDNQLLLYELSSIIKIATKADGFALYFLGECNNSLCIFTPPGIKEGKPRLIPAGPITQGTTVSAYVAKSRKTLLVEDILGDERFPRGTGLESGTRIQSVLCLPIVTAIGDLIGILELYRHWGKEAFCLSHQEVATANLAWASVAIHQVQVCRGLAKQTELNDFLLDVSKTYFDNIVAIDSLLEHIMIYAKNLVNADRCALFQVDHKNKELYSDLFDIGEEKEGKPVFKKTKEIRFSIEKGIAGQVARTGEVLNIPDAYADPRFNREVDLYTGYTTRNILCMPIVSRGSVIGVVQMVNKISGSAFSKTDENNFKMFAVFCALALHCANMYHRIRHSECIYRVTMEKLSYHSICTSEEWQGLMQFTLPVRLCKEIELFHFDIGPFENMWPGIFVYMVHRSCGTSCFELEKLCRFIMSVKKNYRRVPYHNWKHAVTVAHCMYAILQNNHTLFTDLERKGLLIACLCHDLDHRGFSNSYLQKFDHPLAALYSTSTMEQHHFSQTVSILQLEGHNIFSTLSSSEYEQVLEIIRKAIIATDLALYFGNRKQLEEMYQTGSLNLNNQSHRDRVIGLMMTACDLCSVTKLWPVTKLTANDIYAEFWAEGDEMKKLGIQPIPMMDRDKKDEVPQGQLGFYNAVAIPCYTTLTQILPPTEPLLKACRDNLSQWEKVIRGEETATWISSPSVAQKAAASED

Row | SMILES | PCP-induced hyperactivity compared to vehicle+PCP control ([2]; mouse, in vivo) | hyperactivity of mice in PCP-induced model of psychosis as compared to vehicle control ([2]; mouse, in vivo) | number of avoidance responses (CAR) vs vehicle ([3]; 10 mg/kg oral) | conditioned avoidance response (CAR) in trained mice as compared to vehicle control [3] | also measured
1 | CCOC(C(=O)N/N=C/c1cc(OC)c(Br)c(OC)c1)c1cccc2ncccc12 (stereo not drawn) [Compound 12-60] | – | – | – | – | IC50 [1]: ≤ 1 µM; PCP-induced hyperactivity compared to vehicle ([2]; 10 mg/kg i.p., ten minutes before PCP 5 mg/kg i.p.): a similar result; hyperactivity of mice in PCP-induced model of psychosis as compared to vehicle control ([2]; dose not stated): significantly reduces hyperactivity
2 | COc1cc(/C=N/NC(=O)C(OC)c2ccc(-n3cccn3)cc2)cc(OC)c1Br (stereo not drawn) [Compound 12-104] | reduces or abolishes the hyperactivity | significantly reduces hyperactivity | significantly reduces the number of avoidance response | significantly reduces a conditioned avoidance response | number of avoidance responses (CAR) vs vehicle ([3]; 30 mg/kg oral): significantly reduces the number of avoidance response
3 | COc1cc(/C=N/NC(=O)C(OC)c2ccc(N3CCOCC3)cc2)cc(OC)c1Br (stereo not drawn) [Compound 12-114] | completely abolishes the hyperactivity | significantly reduces hyperactivity | significantly reduces the number of avoidance response | significantly reduces a conditioned avoidance response | –
4 | CC(C)Cn1c(=O)n(C)c(=O)c2[nH]cnc21 [IBMX, reference compound] | – | – | – | – | IC50 ([4]; read-out: IC50 (50% inhibitory concentration), inhibition of PDE10): 2.6 µM
5 | Nc1nc2c(ncn2[C@@H]2O[C@@H]3COP(=O)(O)O[C@H]3[C@H]2O)c(=O)[nH]1 [cGMP] | – | – | – | – | Km ([4]; substrate hydrolysis by PDE10): 3 µM; Kd [5]: > 9 µM
